Results taken from PubChem BioAssay AID1259407 (Chemical Carcinogenesis Research Information System (CCRIS), 2018).
Activity calls are given as the source filed them. How the calls were made is not given here.

Tested on: CCRIS mutagenicity, Ames/micronucleus/aberration tests
Experiment: CCRIS mutagenicity studies
[1] = Test System: AMES SALMONELLA TYPHIMURIUM, Strain/Indicator: TA98, Metabolic Activation: NONE, Method: PREINCUBATION
[2] = Test System: AMES SALMONELLA TYPHIMURIUM, Strain/Indicator: TA100, Metabolic Activation: NONE, Method: PREINCUBATION
[3] = Test System: AMES SALMONELLA TYPHIMURIUM, Strain/Indicator: TA1535, Metabolic Activation: NONE, Method: PREINCUBATION
[4] = Test System: AMES SALMONELLA TYPHIMURIUM, Strain/Indicator: TA1537, Metabolic Activation: NONE, Method: PREINCUBATION
[5] = Test System: Mouse lymphoma, Strain/Indicator: L5178Y (tk+/tk-), Metabolic Activation: None, Method: Suspension/plate
[6] = Test System: Mouse lymphoma, Strain/Indicator: L5178Y (tk+/tk-), Metabolic Activation: Rat, Liver, S-9, Aroclor 1254, Method: Suspension/plate

CN1C(=O)CN=C(c2ccccc2)c2cc(Cl)ccc21
mutagenic call (End Point: IN VITRO MICRONUCLEUS, Test System: V79 CELLS, Metabolic Activation: NONE): active; positive
mutagenic call (End Point: IN VIVO CHROMOSOMAL ABERRATIONS, Test System: PERIPHERAL BLOOD LYMPHOCYTES, Species: HUMAN, Strain/Sex: MALE, FEMALE, Route: IV): inactive; negative
mutagenic call (Test System: AMES SALMONELLA TYPHIMURIUM, Strain/Indicator: TA97, Metabolic Activation: HAMSTER, LIVER, S-9, AROCLOR 1254 (10 OR 30%), Method: PREINCUBATION): inactive; negative
mutagenic call (Test System: AMES SALMONELLA TYPHIMURIUM, Strain/Indicator: TA97, Metabolic Activation: NONE, Method: PREINCUBATION): inactive; negative
mutagenic call (Test System: AMES SALMONELLA TYPHIMURIUM, Strain/Indicator: TA97, Metabolic Activation: RAT, LIVER, S-9, AROCLOR 1254 (10 OR 30%), Method: PREINCUBATION): inactive; negative
mutagenic call (Test System: AMES SALMONELLA TYPHIMURIUM, Strain/Indicator: TA98, Metabolic Activation: HAMSTER, LIVER, S-9, AROCLOR 1254 (10 OR 30%), Method: PREINCUBATION): inactive; negative
mutagenic call [1]: inactive; negative
mutagenic call (Test System: AMES SALMONELLA TYPHIMURIUM, Strain/Indicator: TA98, Metabolic Activation: NONE, Method: STANDARD PLATE): inactive; negative
mutagenic call (Test System: AMES SALMONELLA TYPHIMURIUM, Strain/Indicator: TA98, Metabolic Activation: RAT, LIVER, S-9, AROCLOR 1254 (10 OR 30%), Method: PREINCUBATION): inactive; negative
mutagenic call (Test System: AMES SALMONELLA TYPHIMURIUM, Strain/Indicator: TA98, Metabolic Activation: RAT, LIVER, S-9, AROCLOR 1254, Method: STANDARD PLATE): inactive; negative
mutagenic call (Test System: AMES SALMONELLA TYPHIMURIUM, Strain/Indicator: TA100, Metabolic Activation: HAMSTER, LIVER, S-9, AROCLOR 1254 (10 OR 30%), Method: PREINCUBATION): inactive; negative
mutagenic call [2]: inactive; negative
mutagenic call (Test System: AMES SALMONELLA TYPHIMURIUM, Strain/Indicator: TA100, Metabolic Activation: NONE, Method: STANDARD PLATE): inactive; negative
mutagenic call (Test System: AMES SALMONELLA TYPHIMURIUM, Strain/Indicator: TA100, Metabolic Activation: RAT, LIVER, S-9, AROCLOR 1254 (10 OR 30%), Method: PREINCUBATION): inactive; negative
mutagenic call (Test System: AMES SALMONELLA TYPHIMURIUM, Strain/Indicator: TA100, Metabolic Activation: RAT, LIVER, S-9, AROCLOR 1254, Method: STANDARD PLATE): inactive; negative
mutagenic call (Test System: AMES SALMONELLA TYPHIMURIUM, Strain/Indicator: TA1535, Metabolic Activation: HAMSTER, LIVER, S-9, AROCLOR 1254 (10 OR 30%), Method: PREINCUBATION): inactive; negative
mutagenic call [3]: inactive; negative
mutagenic call (Test System: AMES SALMONELLA TYPHIMURIUM, Strain/Indicator: TA1535, Metabolic Activation: NONE, Method: STANDARD PLATE): inactive; negative
mutagenic call (Test System: AMES SALMONELLA TYPHIMURIUM, Strain/Indicator: TA1535, Metabolic Activation: RAT, LIVER, S-9, AROCLOR 1254 (10 OR 30%), Method: PREINCUBATION): inactive; negative
mutagenic call (Test System: AMES SALMONELLA TYPHIMURIUM, Strain/Indicator: TA1535, Metabolic Activation: RAT, LIVER, S-9, AROCLOR 1254, Method: STANDARD PLATE): inactive; negative
mutagenic call (Test System: AMES SALMONELLA TYPHIMURIUM, Strain/Indicator: TA1537, Metabolic Activation: HAMSTER, LIVER, S-9, AROCLOR 1254 (30%), Method: PREINCUBATION): inactive; negative
mutagenic call [4]: inactive; negative
mutagenic call (Test System: AMES SALMONELLA TYPHIMURIUM, Strain/Indicator: TA1537, Metabolic Activation: NONE, Method: STANDARD PLATE): inactive; negative
mutagenic call (Test System: AMES SALMONELLA TYPHIMURIUM, Strain/Indicator: TA1537, Metabolic Activation: RAT, LIVER, S-9, AROCLOR 1254 (30%), Method: PREINCUBATION): inactive; negative
mutagenic call (Test System: AMES SALMONELLA TYPHIMURIUM, Strain/Indicator: TA1537, Metabolic Activation: RAT, LIVER, S-9, AROCLOR 1254, Method: STANDARD PLATE): inactive; negative

CNC(=O)OCc1nc(SC)n(C)c1COC(=O)NC
mutagenic call [5]: active; positive
mutagenic call [6]: active; positive

Nc1ncnc2c1ncn2[C@@H]1O[C@H](CO)C[C@@H]1F
mutagenic call [5]: inactive; negative
mutagenic call [6]: active; equivocal (previous revaluation positive)

O=C1OCCO1
mutagenic call [1]: inactive; negative
mutagenic call (Test System: AMES SALMONELLA TYPHIMURIUM, Strain/Indicator: TA98, Metabolic Activation: RAT LIVER S-9, PHENOBARBITAL AND BETA-NAPHTHOFLAVONE, Method: PREINCUBATION): inactive; negative
mutagenic call [2]: inactive; negative
mutagenic call (Test System: AMES SALMONELLA TYPHIMURIUM, Strain/Indicator: TA100, Metabolic Activation: RAT LIVER S-9, PHENOBARBITAL AND BETA-NAPHTHOFLAVONE, Method: PREINCUBATION): inactive; negative
mutagenic call [3]: inactive; negative
mutagenic call (Test System: AMES SALMONELLA TYPHIMURIUM, Strain/Indicator: TA1535, Metabolic Activation: RAT LIVER S-9, PHENOBARBITAL AND BETA-NAPHTHOFLAVONE, Method: PREINCUBATION): inactive; negative
mutagenic call [4]: inactive; negative
mutagenic call (Test System: AMES SALMONELLA TYPHIMURIUM, Strain/Indicator: TA1537, Metabolic Activation: RAT LIVER S-9, PHENOBARBITAL AND BETA-NAPHTHOFLAVONE, Method: PREINCUBATION): inactive; negative
mutagenic call (Test System: E.COLI, Strain/Indicator: WP2UVRA/PKM101, Metabolic Activation: NONE, Method: PREINCUBATION): inactive; negative
mutagenic call (Test System: E.COLI, Strain/Indicator: WP2UVRA/PKM101, Metabolic Activation: RAT LIVER S-9, PHENOBARBITAL AND BETA-NAPHTHOFLAVONE, Method: PREINCUBATION): inactive; negative

Cc1cc(C(C#N)c2ccc(Cl)cc2)c(Cl)cc1NC(=O)c1cc(I)cc(I)c1O (stereo not given)
mutagenic call (End Point: In vivo chromosomal aberrations, Test System: Bone marrow cells, Species: Mouse, Strain/Sex: Swiss/Male, Route: Intraperitoneal): active; positive (structural changes)
